# From PubChem BioAssay (NCI)
#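 1) Cells in 96-well plates. 2) Compound, 48 h, 5 concentrations. 3) Linear interpolation between surrounding doses. 4) Unreached endpoint = highest concentration. GI50 = concentration required for 50% inhibition of growth. At the TGI there is no net growth.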
# What was measured:
# Assay in all cases: NCI anticancer screen, dose series, 48 h
# [1] = test system: SK-MEL-2 melanoma
# [2] = test system: IGROV1 ovarian
# [3] = test system: SR leukemia
# [4] = test system: SN12C renal
# [5] = test system: SF-539 CNS
# [6] = test system: OVCAR-8 ovarian
# [7] = test system: K-562 leukemia
# [8] = test system: A498 renal
# [9] = test system: RPMI-8226 leukemia
# [10] = test system: HCT-15 colon
# [11] = test system: SK-OV-3 ovarian
# [12] = test system: U251 CNS
# [13] = test system: HOP-92 NSCLC
# [14] = test system: NCI-H226 lung
# [15] = test system: PC-3 prostate
# [16] = test system: SK-MEL-28 melanoma
# [17] = test system: HOP-62 NSCLC
# [18] = test system: MOLT-4 leukemia
# [19] = test system: NCI-H23 lung
# [20] = test system: SNB-19 CNS
# [21] = test system: OVCAR-5 ovarian
# [22] = test system: SNB-75 CNS
# [23] = test system: HCC-2998 colon
# [24] = test system: HCT-116 colon
# [25] = test system: 786-0 renal
# [26] = test system: TK-10 renal
# [27] = test system: OVCAR-3 ovarian
# [28] = test system: BT-549 breast
# [29] = test system: HL-60(TB) leukemia
smiles,measurement,setting,value
N#C/C(=N\Nc1ccc(F)cc1)C(=O)Nc1cc(-c2ccccc2)nn1-c1ccccc1,TGI,[1],5.01 µM
same,GI50,[2],3.69 µM
same,TGI,[2],18.3 µM
same,GI50,[3],2.27 µM
same,TGI,[3],8.74 µM
same,GI50,[4],1.83 µM
same,TGI,[4],8.45 µM
same,GI50,[5],3.26 µM
same,TGI,[5],12.8 µM
same,GI50,[6],2.61 µM
same,TGI,[6],63.8 µM
same,GI50,[7],1.45 µM
same,TGI,[7],12.8 µM
same,GI50,[8],0.141 µM
same,TGI,[8],2.86 µM
same,GI50,[9],0.75 µM
same,TGI,[9],4.48 µM
same,GI50,[10],2.34 µM
same,TGI,[10],45.4 µM
same,GI50,[11],1.61 µM
same,TGI,[11],6.39 µM
same,GI50,[12],3.04 µM
same,TGI,[12],13.2 µM
same,GI50,[13],0.427 µM
same,TGI,[13],3.85 µM
same,GI50,[14],2.84 µM
same,TGI,[14],13.7 µM
same,GI50,[15],1.77 µM
same,TGI,[15],8.7 µM
same,GI50,[16],3.35 µM
same,TGI,[16],77.2 µM
same,GI50,[17],2.69 µM
same,TGI,[17],11.2 µM
same,GI50,[18],2.16 µM
same,TGI,[18],9.92 µM
same,GI50,[19],1.75 µM
same,TGI,[19],10.6 µM
same,GI50,[20],2.99 µM
same,TGI,[20],13.4 µM
same,GI50,[21],3.52 µM
same,TGI,[21],17.2 µM
same,GI50,[22],1.93 µM
same,TGI,[22],8.45 µM
same,GI50,[23],3.61 µM
same,TGI,[23],19.3 µM
same,GI50,[24],2.16 µM
same,TGI,[24],11.5 µM
same,GI50,[25],3.41 µM
same,TGI,[25],14 µM
same,GI50,[26],3.43 µM
same,TGI,[26],16.2 µM
same,GI50,[27],2.4 µM
same,TGI,[27],15.6 µM
same,GI50,[28],2.11 µM
same,TGI,[28],11.2 µM
same,GI50,[29],1.89 µM
same,TGI,[29],5.43 µM
